The target of the assay is GST-Bcl-2 (Homo sapiens (Human), UniProt P10415). Kind of assay: Time Resolved-Fluorescence Resonance Energy Transfer (TR-FRET) Bcl-2 binding assay. To be noted: GST-Bcl-2 1 nM, F-Bak peptide probe 100 nM, Tb-anti-GST antibody 1 nM; Ki by Wang's equation. The protocol: Determination of the utility of compounds having Formula (I) as binders to and inhibitors of anti-apoptotic Bcl-2 proteins was performed using the Time Resolved-Fluorescence Resonance Energy Transfer (TR-FRET) Assay. Tb-anti-GST antibody was purchased from Invitrogen (Catalog No. PV4216).
GST-Bcl-2, sequence (P10415 whole entry): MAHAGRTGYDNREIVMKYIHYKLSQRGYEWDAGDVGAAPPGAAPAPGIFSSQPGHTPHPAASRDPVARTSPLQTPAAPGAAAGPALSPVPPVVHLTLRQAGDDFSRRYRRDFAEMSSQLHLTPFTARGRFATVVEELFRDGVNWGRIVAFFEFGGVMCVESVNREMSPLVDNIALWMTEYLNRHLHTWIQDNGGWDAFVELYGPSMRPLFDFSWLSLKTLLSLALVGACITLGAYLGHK
Representative compounds were serially diluted in dimethyl sulfoxide (DMSO) starting at 50 μM (2× starting concentration; 10% DMSO) and 10 μL were transferred into a 384-well plate. The samples are then mixed on a shaker for 1 minute and incubated for an additional 3 hours at room temperature. For each assay, the probe/antibody and protein/probe/antibody were included on each assay plate as negative and positive controls, respectively. Fluorescence was measured on the Envision (Perkin Elmer) using a 340/35 nm excitation filter and 520/525 (F-Bak peptide) and 495/510 nm (Tb-labeled anti-Histidine antibody) emission filters.
The samples were then mixed on a shaker for 1 minute and incubated for an additional 3 hours at room temperature. For each assay, the probe/antibody and protein/probe/antibody were included on each assay plate as negative and positive controls, respectively. Fluorescence was measured on the Envision (Perkin Elmer) using a 340/35 nm excitation filter and 520/525 (F-Bak peptide) and 495/510 nm (Tb-labeled anti-Histidine antibody) emission filters.
The inhibition constant (Ki) is the dissociation constant of an enzyme-inhibitor complex or a protein/small molecule complex, wherein the small molecule is inhibiting binding of one protein to another protein. So a large Ki value indicates a low binding affinity and a small Ki value indicates a high binding affinity.
For orientation: In TR-FRET formats the signal depends on donor and acceptor labels being close together.
On to “2-(2-chlorophenoxy)-4-(4-{([2-(4-chlorophenyl)-4,4-dimethylcyclohex-1-en-1-yl]methyl}piperazin-1-yl)-N-({4-[(1,4-dimethylpiperidin-4-yl)amino]-3-nitrophenyl}sulfonyl)benzamide [Example 168]”, for which the Ki (commonly a measure of affinity in units of concentration, obtained from inhibition or displacement) came out at 28.3 nM. Next, “4-(4-{[4-(4-chlorophenyl)-6,6-dimethyl-5,6-dihydro-2H-pyran-3-yl]methyl)}piperazin-1-yl)-2-[(6-fluoro-1H-indol-5-yl)oxy]-N-({4-[(4-fluorotetrahydro-2H-pyran-4-yl)methoxy]-3-nitrophenyl}sulfonyl)benzamide [Example 297]”: less than 0.01 nM; `CN(C)Cc1cccc(Oc2cc(N3CCN(Cc4ccccc4-c4ccc(Cl)cc4)CC3)ccc2C(=O)NS(=O)(=O)c2ccc(NCC3CCOCC3)c([N+](=O)[O-])c2)c1` [Example 1, 4-(4-((4′-chloro-1,1′-biphenyl-2-yl)methyl)piperazin-1-yl)-2-(3-((dimethylamino)methyl)phenoxy)-N-((3-nitro-4-((tetrahydro-2H-pyran-4-ylmethyl)amino)phenyl)sulfonyl)benzamide]: 8.35 nM; `CNc1cccc(Oc2cc(N3CCN(Cc4ccccc4-c4ccc(Cl)cc4)CC3)ccc2C(=O)NS(=O)(=O)c2ccc(NCC3CCOCC3)c([N+](=O)[O-])c2)c1` [Example 2, 4-(4-((4′-chloro-1,1′-biphenyl-2-yl)methyl)piperazin-1-yl)-2-(3-(methylamino)phenoxy)-N-((3-nitro-4-((tetrahydro-2H-pyran-4-ylmethyl)amino)phenyl)sulfonyl)benzamide]: 31.5 nM. Molecule `Cc1cc2cc(Oc3cc(N4CCN(CC5=C(c6ccc(Cl)cc6)CC(C)(C)CC5)CC4)ccc3C(=O)NS(=O)(=O)c3ccc(NC4CCN(C)CC4)c([N+](=O)[O-])c3)ccc2[nH]1` [Example 3, 4-(4-((2-(4-chlorophenyl)-4,4-dimethylcyclohex-1-en-1-yl)methyl)piperazin-1-yl)-2-((2-methyl-1H-indol-5-yl)oxy)-N-((4-((1-methylpiperidin-4-yl)amino)-3-nitrophenyl)sulfonyl)benzamide] yielded an inhibitory constant (Ki) of 0.827 nM. With `Cc1cc2cc(Oc3cc(N4CCN(CC5=C(c6ccc(Cl)cc6)CC(C)(C)CC5)CC4)ccc3C(=O)NS(=O)(=O)c3ccc(NCCCN4CCOCC4)c([N+](=O)[O-])c3)ccc2[nH]1` [Example 4, 4-(4-((2-(4-chlorophenyl)-4,4-dimethylcyclohex-1-en-1-yl)methyl)piperazin-1-yl)-2-((2-methyl-1H-indol-5-yl)oxy)-N-((4-((3-morpholin-4-ylpropyl)amino)-3-nitrophenyl)sulfonyl)benzamide], the inhibition constant (Ki) was 2.47 nM.

Molecule `O=C(NS(=O)(=O)c1ccc(NCC2CCOCC2)c([N+](=O)[O-])c1)c1ccc(N2CCN(Cc3ccccc3-c3ccc(Cl)cc3)CC2)cc1Oc1ccccc1Cl` [Example 5, 4-(4-((4′-chloro-1,1′-biphenyl-2-yl)methyl)piperazin-1-yl)-2-(2-chlorophenoxy)-N-((3-nitro-4-((tetrahydro-2H-pyran-4-ylmethyl)amino)phenyl)sulfonyl)benzamide] displayed a Ki of 0.746 nM. `O=C(NS(=O)(=O)c1ccc(NCC2CCOCC2)c([N+](=O)[O-])c1)c1ccc(N2CCN(Cc3ccccc3-c3ccc(Cl)cc3)CC2)cc1Oc1cccc(Cl)c1` [Example 6, 4-(4-((4′-chloro-1,1′-biphenyl-2-yl)methyl)piperazin-1-yl)-2-(3-chlorophenoxy)-N-((3-nitro-4-((tetrahydro-2H-pyran-4-ylmethyl)amino)phenyl)sulfonyl)benzamide] displayed an inhibition constant (Ki) of 0.787 nM.

`O=C(NS(=O)(=O)c1ccc(NCC2CCOCC2)c([N+](=O)[O-])c1)c1ccc(N2CCN(Cc3ccccc3-c3ccc(Cl)cc3)CC2)cc1Oc1ccc(Cl)cc1` [Example 7, 4-(4-((4′-chloro-1,1′-biphenyl-2-yl)methyl)piperazin-1-yl)-2-(4-chlorophenoxy)-N-((3-nitro-4-((tetrahydro-2H-pyran-4-ylmethyl)amino)phenyl)sulfonyl)benzamide] showed an inhibition constant Ki of 2.59 nM. For the molecule `O=C(NS(=O)(=O)c1ccc(NCC2CCOCC2)c([N+](=O)[O-])c1)c1ccc(N2CCN(Cc3ccccc3-c3ccc(Cl)cc3)CC2)cc1Oc1cccc([N+](=O)[O-])c1` [Example 8, 4-(4-((4′-chloro-1,1′-biphenyl-2-yl)methyl)piperazin-1-yl)-2-(3-nitrophenoxy)-N-((3-nitro-4-((tetrahydro-2H-pyran-4-ylmethyl)amino)phenyl)sulfonyl)benzamide], the inhibition constant Ki amounted to 3.45 nM. This Ki and that of the molecule before are within 1.5-fold of each other.

The molecule `O=C(NS(=O)(=O)c1ccc(NCCCN2CCOCC2)c([N+](=O)[O-])c1)c1ccc(N2CCN(Cc3ccccc3-c3ccc(Cl)cc3)CC2)cc1Oc1cccc(CO)c1` [Example 9, 4-(4-((4′-chloro-1,1′-biphenyl-2-yl)methyl)piperazin-1-yl)-2-(3-(hydroxymethyl)phenoxy)-N-((4-((3-morpholin-4-ylpropyl)amino)-3-nitrophenyl)sulfonyl)benzamide] showed a Ki of 0.754 nM. Against the preceding molecule, the Ki is about 4.6-fold lower. The result for `CN(C)CCCNc1ccc(S(=O)(=O)NC(=O)c2ccc(N3CCN(Cc4ccccc4-c4ccc(Cl)cc4)CC3)cc2Oc2ccccc2Cl)cc1[N+](=O)[O-]` [Example 11, 4-(4-((4′-chloro-1,1′-biphenyl-2-yl)methyl)piperazin-1-yl)-2-(2-chlorophenoxy)-N-((4-((3-(dimethylamino)propyl)amino)-3-nitrophenyl)sulfonyl)benzamide] reads 0.171 nM; that for `O=C(NS(=O)(=O)c1ccc(NCCCN2CCOCC2)c([N+](=O)[O-])c1)c1ccc(N2CCN(Cc3ccccc3-c3ccc(Cl)cc3)CC2)cc1Oc1cccc(Cl)c1` [Example 12, 4-(4-((4′-chloro-1,1′-biphenyl-2-yl)methyl)piperazin-1-yl)-2-(3-chlorophenoxy)-N-((4-((3-morpholin-4-ylpropyl)amino)-3-nitrophenyl)sulfonyl)benzamide], 0.331 nM; that for `O=C(NS(=O)(=O)c1ccc(NCCCN2CCOCC2)c([N+](=O)[O-])c1)c1ccc(N2CCN(Cc3ccccc3-c3ccc(Cl)cc3)CC2)cc1Oc1ccc(Cl)cc1` [Example 13, 4-(4-((4′-chloro-1,1′-biphenyl-2-yl)methyl)piperazin-1-yl)-2-(4-chlorophenoxy)-N-((4-((3-morpholin-4-ylpropyl)amino)-3-nitrophenyl)sulfonyl)benzamide], 1.62 nM. The result for `CN(C)CCCNc1ccc(S(=O)(=O)NC(=O)c2ccc(N3CCN(Cc4ccccc4-c4ccc(Cl)cc4)CC3)cc2Oc2cccc(Cl)c2)cc1[N+](=O)[O-]` [Example 14, 4-(4-((4′-chloro-1,1′-biphenyl-2-yl)methyl)piperazin-1-yl)-2-(3-chlorophenoxy)-N-((4-((3-(dimethylamino)propyl)amino)-3-nitrophenyl)sulfonyl)benzamide] reads 0.079 nM. `CN(C)CCCNc1ccc(S(=O)(=O)NC(=O)c2ccc(N3CCN(Cc4ccccc4-c4ccc(Cl)cc4)CC3)cc2Oc2ccc(Cl)cc2)cc1[N+](=O)[O-]` [Example 15, 4-(4-((4′-chloro-1,1′-biphenyl-2-yl)methyl)piperazin-1-yl)-2-(4-chlorophenoxy)-N-((4-((3-(dimethylamino)propyl)amino)-3-nitrophenyl)sulfonyl)benzamide] displayed an inhibition constant Ki of 0.586 nM. Compared with the last molecule, the Ki is about 7.4-fold higher.

These data come from US8952157B2, “Apoptosis-inducing agents for the treatment of cancer and immune and autoimmune diseases” (AbbVie Inc., priority 2008, dated 2015).
